# Reference: publication PMC10526194 (2023)
# Key:
# [1] = tested on: 40-mer aptamer (DNA, aptamer) ACGTTGACGCTGGTGCCCGGTTGTGGTGCGAGTGTTGTGT; assay: CD titration; details: 100 mM Na+, 5 mM K+, 2 mM Mg2+, 1 mM Ca2+; 20 mM Tris pH 7.6, 25 °C; 5 µM aptamer, 2.5-40 µM OTC
# [2] = tested on: thiol-modified 40-mer aptamer (DNA, aptamer) ACGTTGACGCTGGTGCCCGGTTGTGGTGCGAGTGTTGTGT; assay: QCM with dissipation (frequency decrease); details: 100 mM Na+, 5 mM K+, 2 mM Mg2+, 1 mM Ca2+; pH 7.1 and 9.1, 25 °C; 20 and 40 µM OTC
# [3] = tested on: 40-mer aptamer (DNA, aptamer) ACGTTGACGCTGGTGCCCGGTTGTGGTGCGAGTGTTGTGT; assay: CD thermal denaturation (250 nm free, 270 nm bound); details: 100 mM Na+, 5 mM K+, 2 mM Mg2+, 1 mM Ca2+; 20 mM Tris pH 7.1; 40 µM OTC, 5 µM aptamer; derived from two Tm (41 to 80 °C)
# [4] = tested on: 71-mer aptamer (DNA, aptamer) GGAATTCGCTAGCACGTTGACGCTGGTGCCCGGTTGTGGTGCGAGTGTTGTGTGGATCCGAGCTCCACGTG; assay: CD titration; details: 100 mM Na+, 5 mM K+, 2 mM Mg2+, 1 mM Ca2+; 20 mM Tris pH 7.6, 25 °C; 5 µM aptamer, 2.5-40 µM OTC
compound,measurement,setting,value
CN(C)[C@@H]1C(=O)C(C(N)=O)=C(O)[C@@]2(O)C(=O)C3=C(O)c4c(O)cccc4[C@@](C)(O)[C@H]3[C@H](O)[C@@H]12,binding,[1],yes
same,binding,[2],yes
same,Tm shift (ΔTm),[3],39 °C
same,binding,[4],yes
